US20040053972A1, “Medicinal compositions having improved absorbability” (priority 2000, published 2004)

Key:
[1] = system: human breast cancer cell line BT-474; assay: In vitro inhibition of growth of breast cancer cell BT-474; type: cell-based; settings: 120 h, BT-474 cells, heregulin, cultured for 5 days, SRB staining
Experimental: In vitro Inhibition of Growth of Breast Cancer Cell BT-474
In each well of a 96-well microtiter plate, 100 μl (containing 1,000 cells) of a cell suspension of human breast cancer cell line BT-474 was seeded and incubated at 37° C. in a 5% carbon dioxide gas incubator. On the next day, 100 μl of the 2-fold serial dilution of a solution of each test compound prepared by using 250 μl of a heregulin solution, which was adjusted so as to be the final concentration of 0.8 μg/mL, was added to each well and cultured for 5 days. The solution containing the test compound was removed and the cells were washed and fixed with a 50% trichloroacetic acid solution. To the cells was added a 0.4% (W/V) solution of pigment SRB (dissolved in 1% acetic acid) to fix as well as stain the cell protein (Skehan P. et al., Journal of the National Cancer Institute Vol. 82, pp. 1107-1112, 1990). The pigment solution was removed and the remainder was washed with a 1% acetic acid solution. Then, 100 μl of an extracting solution (10 mM Tris buffer) was added thereto to extract the pigment. The optical density of the extract at the wavelength of 550 nm was measured to determine the amount of the cells in terms of the amount of the protein. The proportion of the amount of remaining protein of each treated group was determined by taking the amount of protein of the control to which no solution of a test compound was added as 100% to calculate the value of the concentration of the compound required for inhibiting the remaining cells by 50% of that of the control (IC50)

HER2 = molecular target: T1, HER2 (Homo sapiens, UniProt P04626); assay: Inhibition of phosphorylation of receptor tyrosine (HER2) in human breast cancer cells MCF-7; type: cell-based; settings: MCF-7 cells, test compound 2 hours, then heregulin 0.8 μg/mL for 5 minutes
T1 construct: amount of phosphorylation of HER2 tyrosine of the cells; endogenous in cells; host or cells: MCF-7 human breast cancer cell line
T1 sequence (P04626 23-1255): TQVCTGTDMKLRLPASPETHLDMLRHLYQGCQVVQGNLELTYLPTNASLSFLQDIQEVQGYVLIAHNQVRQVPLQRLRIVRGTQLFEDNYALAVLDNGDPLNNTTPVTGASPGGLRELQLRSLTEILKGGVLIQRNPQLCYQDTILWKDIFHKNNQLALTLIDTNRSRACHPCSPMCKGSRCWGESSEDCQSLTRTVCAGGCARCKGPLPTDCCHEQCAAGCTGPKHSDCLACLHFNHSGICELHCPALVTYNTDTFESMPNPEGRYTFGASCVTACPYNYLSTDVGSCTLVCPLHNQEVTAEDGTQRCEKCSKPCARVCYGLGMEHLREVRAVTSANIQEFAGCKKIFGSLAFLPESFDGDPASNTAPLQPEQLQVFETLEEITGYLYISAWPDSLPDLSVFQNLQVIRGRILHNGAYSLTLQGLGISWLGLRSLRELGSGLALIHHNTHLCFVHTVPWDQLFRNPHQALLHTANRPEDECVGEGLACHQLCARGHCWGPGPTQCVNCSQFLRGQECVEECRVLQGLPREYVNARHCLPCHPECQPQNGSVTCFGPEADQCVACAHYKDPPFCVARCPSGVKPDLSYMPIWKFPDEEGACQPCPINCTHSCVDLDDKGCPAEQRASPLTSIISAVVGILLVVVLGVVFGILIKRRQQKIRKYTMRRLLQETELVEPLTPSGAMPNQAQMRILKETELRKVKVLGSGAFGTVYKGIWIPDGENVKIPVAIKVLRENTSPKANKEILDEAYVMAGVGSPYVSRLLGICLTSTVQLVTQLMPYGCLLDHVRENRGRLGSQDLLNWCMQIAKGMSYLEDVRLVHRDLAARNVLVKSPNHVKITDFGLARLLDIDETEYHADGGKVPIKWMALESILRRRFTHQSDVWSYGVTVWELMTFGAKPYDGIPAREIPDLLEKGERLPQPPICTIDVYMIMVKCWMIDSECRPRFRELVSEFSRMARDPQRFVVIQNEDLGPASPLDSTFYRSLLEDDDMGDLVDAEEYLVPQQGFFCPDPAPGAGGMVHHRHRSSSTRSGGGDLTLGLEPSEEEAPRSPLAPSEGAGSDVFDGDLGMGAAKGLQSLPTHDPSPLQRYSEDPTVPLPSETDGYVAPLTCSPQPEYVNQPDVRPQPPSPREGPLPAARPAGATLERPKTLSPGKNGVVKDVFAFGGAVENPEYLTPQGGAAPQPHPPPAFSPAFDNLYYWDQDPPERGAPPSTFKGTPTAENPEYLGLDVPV
Experimental: Inhibition of Phosphorylation of Receptor Tyrosine in Human Breast Cancer Cells
In each well of a 24-well plate, 500 μl of the cell suspension ([…]) of human breast cancer cell line MCF-7 was seeded and incubated at 37° C. in a 5% carbon dioxide gas incubator. On the next day, 250 μl of a 4-fold serial dilution of a solution of a test compound was added to each well and, 2 hours later, 250 μl of a heregulin solution, which was adjusted so as to be the final concentration of 0.8 μg/mL, was added thereto. After 5 minutes, an extracting solution was added thereto to terminate the reaction as well as to extract a protein. The protein was fractionated by protein electrophoresis and the protein in the electrophoretic gel was transferred to a nylon filter. The filter was reacted with a phosphorylated tyrosine-specific antibody. The reaction product was fluorescence-labeled and was exposed to a photo-film. The intensity of the exposure on the photo-film was quantitated by an image-analyzing apparatus.

[2] = system: Human breast cancer cell line BT-474; assay: In vivo breast cancer inhibiting effect (BT-474 implanted in nude mice); settings: nude mice with BT-474 tumors, orally twice daily 30 mg/kg body weight for 10 days
Experimental: In Vivo Breast Cancer Inhibiting Effect
Human breast cancer cell line BT-474 (5,000,000 cells) were suspended in a gel-matrix solution. The suspension was subcutaneously implanted in the breast of 6-week-old female Balb/C strain nude mice (Friedman R. et al., Proceedings of the National Academy of Sciences of the U.S.A. Vol. 87, pp. 6698-6702, 1990). At the time of the implantation and seven days after the implantation, an estradiol dipropionate solution (5 mg/mL) was intramuscularly administered to the hind leg for the purpose of enhancing a take ratio of tumors. Fourteen days after the implantation, the diameters of tumors were determined. For the experiment were used 5 mice per group with similar tumor size. Each of compounds (4, 6, 14, 17, 19, 20, 23, 24 and 26) of the present invention was suspended in a 5% gum arabic solution (physiological saline) and administered orally twice daily in dose of 30 mg/kg body weight for 10 days. On the day when the administration was terminated, the diameters of tumors were measured. Tumor volume was calculated by the following equation.
Volume of tumor=longest diameter×shortest diameter×shortest diameter×½
The growth rate of tumors was calculated as the proportion of the value obtained by subtracting the initial volume from the final volume in the group to which the drug was administered, to the value obtained by subtracting the initial volume from the final volume in the control group to which a gum arabic solution was administered.

melting point [°C]	IC50 [1] [µM]	IC50 (HER2) [µM]	SMILES	Inhibition ratio (%) [2] [%]
149 to 150			OCCc1nccn1CCCCc1ccc(OCc2coc(/C=C/c3ccc(Br)cc3)n2)cc1 [B16, 2-[1-[4-[4-[[2-[(E)-2-(4-Bromophenyl)ethenyl]-1,3-oxazol-4-yl]methoxy]phenyl]butyl]-1H-imidazol-2-yl]-1-ethanol]	
109 to 111	< 0.05	1.1	Cc1cccc(/C=C/c2nc(COc3ccc(CCCCn4ccnc4CCO)cc3)co2)c1 [B11, 2-[1-[4-[4-[[2-[(E)-2-(3-Methylphenyl)ethenyl]-1,3-oxazol-4-yl]methoxy]phenyl]butyl]-1H-imidazol-2-yl]-1-ethanol]	
91 to 93			Cc1ccccc1/C=C/c1nc(COc2ccc(CCCCn3ccnc3CCO)cc2)co1 [B12, 2-[1-[4-[4-[[2-[(E)-2-(2-Methylphenyl)ethenyl]-1,3-oxazol-4-yl]methoxy]phenyl]butyl]-1H-imidazol-2-yl]-1-ethanol]	
130 to 132			OCCc1nccn1CCCCc1ccc(OCc2coc(/C=C/c3ccc(F)cc3)n2)cc1 [B14, 2-(1-{4-[4-({2-[(E)-2-(4-Fluorophenyl)ethenyl]-1,3-oxazol-4-yl}methoxy)phenyl]butyl}-1H-imidazol-2-yl)-1-ethanol]	
94 to 95			CCc1ccc(/C=C/c2nc(COc3ccc(CCCCn4ccnc4CCO)cc3)co2)cc1 [B13, 2-[1-[4-[4-[[2-[(E)-2-(4-Ethylphenyl)ethenyl]-1,3-oxazol-4-yl]methoxy]phenyl]butyl]-1H-imidazol-2-yl]-1-ethanol]	
114 to 116			OCC(O)Cc1nccn1CCCCc1ccc(OCc2coc(/C=C/c3ccc(F)cc3)n2)cc1 (centres unmarked) [B23, 3-(1-{4-[4-({2-[(E)-2-(4-Fluorophenyl)ethenyl]-1,3-oxazol-4-yl}methoxy)phenyl]butyl}-1H-imidazol-2-yl)-1,2-propanediol]	27
108 to 109			Cc1ccc(/C=C/c2nc(COc3ccc(CCCCn4ccnc4CCO)cc3)co2)cc1 [B10, 2-[1-[4-[4-[[2-[(E)-2-(4-Methylphenyl)ethenyl]-1,3-oxazol-4-yl]methoxy]phenyl]butyl]-1H-imidazol-2-yl]-1-ethanol]	
127 to 128			OCCc1nccn1CCCCc1ccc(OCc2coc(/C=C/c3ccc(Cl)cc3)n2)cc1 [B15, 2-[1-[4-[4-[[2-[(E)-2-(4-Chlorophenyl)ethenyl]-1,3-oxazol-4-yl]methoxy]phenyl]butyl]-1H-imidazol-2-yl]-1-ethanol]	
93 to 95	0.017		OCCc1nccn1CCCCc1ccc(OCc2coc(/C=C/c3ccc(F)cc3F)n2)cc1 [Reference Example B19, 2-[1-[4-[4-[[2-[(E)-2-(2,4-Difluorophenyl)ethenyl]-1,3-oxazol-4-yl]methoxy]phenyl]butyl]-1H-imidazol-2-yl]-1-ethanol]	

Second part, the compound before the results:

SMILES	melting point [°C]	IC50 [1] [µM]	IC50 (HER2) [µM]	Inhibition ratio (%) [2] [%]
Cc1cccc(/C=C/c2nc(COc3ccc(CCCCn4ccnc4CC(O)CO)cc3)co2)c1 (centres unmarked) [B22, 3-(1-{4-[4-({2-[(E)-2-(3-Methylphenyl)ethenyl]-1,3-oxazol-4-yl}methoxy)phenyl]butyl}-1H-imidazol-2-yl)-1,2-propanediol]	102 to 104	< 0.05	1.9	
OCC(O)Cc1nccn1CCCCc1ccc(OCc2coc(/C=C/c3ccc(C(F)(F)F)cc3)n2)cc1 (centres unmarked) [B24, 3-[1-(4-{4-[(2-{(E)-2-[4-(Trifluoromethyl)phenyl]ethenyl}-1,3-oxazol-4-yl)methoxy]phenyl}butyl)-1H-imidazol-2-yl]-1,2-propanediol]	142 to 143			28
OCCc1nccn1CCCc1ccc(OCc2coc(/C=C/c3ccc(F)cc3F)n2)cc1 [B20, 2-[1-[3-[4-[[2-[(E)-2-(2,4-Difluorophenyl)ethenyl]-1,3-oxazol-4-yl]methoxy]phenyl]propyl]-1H-imidazol-2-yl]-1-ethanol]	94 to 96	< 0.05	1.5	
Fc1ccc(/C=C/c2nc(COc3ccc(CCCCn4ccnn4)cc3)co2)c(F)c1 [B7, 1-{4-[4-({2-[(E)-2-(2,4-Difluorophenyl)ethenyl]-1,3-oxazol-4-yl}methoxy)phenyl]butyl}-1H-1,2,3-triazole]	115 to 117			
Fc1ccc(/C=C/c2nc(COc3cccc(CCCn4ccnn4)c3)co2)cc1 [B3, 1-{3-[3-({2-[(E)-2-(4-Fluorophenyl)ethenyl]-1,3-oxazol-4-yl}methoxy)phenyl]propyl}-1H-1,2,3-triazole]	105 to 106	< 0.05	0.18	
OCC(O)Cc1nccn1CCCc1cccc(OCc2coc(/C=C/c3ccc(C(F)(F)F)cc3)n2)c1 (centres unmarked) [B25, 3-[1-(3-{3-[(2-{(E)-2-[4-(Trifluoromethyl)phenyl]ethenyl}-1,3-oxazol-4-yl)methoxy]phenyl}propyl)-1H-imidazol-2-yl]-1,2-propanediol]	102 to 104			
OCC(O)Cc1nccn1CCCCc1ccc(OCc2coc(/C=C/c3c(F)cccc3F)n2)cc1 (centres unmarked) [B28, 3-[1-[4-[4-[[2-[(E)-2-(2,6-Difluorophenyl)ethenyl]-1,3-oxazol-4-yl]methoxy]phenyl]butyl]-1H-imidazol-2-yl]-1,2-propanediol]	123 to 125			
FC(F)(F)c1ccc(/C=C/c2nc(COc3ccc(CCCn4ccnn4)cc3)co2)cc1 [B5, 1-(3-{4-[(2-{(E)-2-[4-(Trifluoromethyl)phenyl]ethenyl}-1,3-oxazol-4-yl)methoxy]phenyl}propyl)-1H-1,2,3-triazole]	157 to 158	< 0.05		
OCC(O)Cc1nccn1CCCCc1ccc(OCc2coc(/C=C/c3ccc(F)cc3F)n2)cc1 (centres unmarked) [Reference Example B26, 3-(1-{4-[4-({2-[(E)-2-(2,4-Difluorophenyl)ethenyl]-1,3-oxazol-4-yl}methoxy)phenyl]butyl}-1H-imidazol-2-yl)-1,2-propanediol]		< 0.05	0.92	15
FC(F)(F)c1ccc(/C=C/c2nc(COc3cccc(CCCn4ccnn4)c3)co2)cc1 [Reference Example B6, 1-(3-{3-[(2-{(E)-2-[4-(Trifluoromethyl)phenyl]ethenyl}-1,3-oxazol-4-yl)methoxy]phenyl}propyl)-1H-1,2,3-triazole]	115 to 116	< 0.05	1.2	28
Fc1ccc(/C=C/c2nc(COc3cccc(CCCn4ccnn4)c3)co2)c(F)c1 [B8, 1-{3-[3-({2-[(E)-2-(2,4-Difluorophenyl)ethenyl]-1,3-oxazol-4-yl}methoxy)phenyl]propyl}-1H-1,2,3-triazole]	89 to 90			
OCC(O)Cc1nccn1CCCc1cccc(OCc2coc(/C=C/c3ccc(F)cc3F)n2)c1 (centres unmarked) [B27, 3-(1-{3-[3-({2-[(E)-2-(2,4-Difluorophenyl)ethenyl]-1,3-oxazol-4-yl}methoxy)phenyl]propyl}-1H-imidazol-2-yl)-1,2-propanediol]	92 to 94			
Fc1ccc(/C=C/c2nc(COc3ccc(CCCCn4ccnn4)cc3)co2)cc1 [Reference Example B2, 1-{4-[4-({2-[(E)-2-(4-Fluorophenyl)ethenyl]-1,3-oxazol-4-yl}methoxy)phenyl]butyl}-1H-1,2,3-triazole]	124 to 125	< 0.05	1.9	
